Here are results for two compounds from US6933295B2, “Substituted isoindoles and the use thereof” (Bayer Aktiengesellschaft, priority 2001, dated 2005).

The term melting point denotes the temperature of the solid-liquid transition. In the case of `N#CCOc1ccc(CN2C(=O)c3cccc(NC(=O)c4ccc(Cl)s4)c3C2=O)cc1` [Example 6, 5-Chloro-N-{2-[4-(cyanomethoxy)benzyl]-1,3-dioxo-2,3-dihydro-1H-isoindol-4-yl}-2-thiophenecarboxamide], the melting point was 199 °C.

The compound `CC(C#N)Oc1cccc(CN2C(=O)c3cccc(NC(=O)c4ccc(Cl)s4)c3C2=O)c1` (centres unmarked) [Example 7, 5-Chloro-N-{2-[3-(1-cyanoethoxy)benzyl]-1,3-dioxo-2,3-dihydro-1H-isoindol-4-yl}-2-thiophenecarboxamide] gave a melting point of 88 °C.
